In patent US12246008B2, “4-amino or 4-alkoxy-substituted aryl sulfonamide compounds with selective activity in voltage-gated sodium channels” (Merck Sharp & Dohme LLC, priority 2018, dated 2025):
Like-named read-outs stand apart in the source and are kept apart here.

Assays:
Assay in all cases: Qube automated patch-clamp assay, inhibition of sodium current
Assay type in all cases: cell-based
[1] = target: T1, human Nav1.6 channels stably expressed in HEK 293 cells (Homo sapiens, UniProt Q9UQD0); settings: holding potential −65 mV; max concentration tested 33750 nM
T1 construct: expressed in transfected cells; host or cells: HEK 293
Description: (§1) Qube™ Experimental Procedure:
(§2) Compounds were tested on human Nav1.7 and Nav1.6 channels stably expressed in HEK 293 cells. […] Cells were sealed on a planar substrate using the multihole technology. Cells expressing human Nav1.7 channels were held at −75 mV or −80 mV. Cells expressing human Nav1.6 channels were held at −65 mV. A train of 6 consecutive test pulses to −10 mV, preceded by 8 s prepulses to −115 mV, was applied at a frequency of 0.1 Hz before and after compound addition. Cells in each Qchip well were incubated in compound for 5 minutes before measuring inhibition. Peak currents were measured in control conditions and after compound addition. The following recording solutions were used (mM). External Nav1.6: 150 NaCl, 2 CaCl2), 5 KCl, 1 Mg Cl2, 10 HEPES, 12 Dextrose; external Nav1.7: 40 NaCl, 120 NMDG, 1 KCl, 0.5 MgCl2, 5 HEPES, 2.7 CaCl2); internal: 120 CsF, 30 CsCl, 10 EGTA, 5 HEPES, 5 NaF, 2 MgCl2. Compounds were prepared as 10 mM stock solutions in DMSO. 10 point compound titrations were generated using the Echo acoustic liquid handling instrument and glass coated 384 well plates. The final DMSO concentration in the assay was 0.3%. For all electrophysiology experiments, offline analysis was used to determine percent inhibition as a function of drug concentration. IC50 values were determined by fitting to the Hill equation.
(§3) The various compounds in EXAMPLES 1 through 43 and TABLE 2 exemplified above were assayed for activity and selectivity using the foregoing Qube® technique. The results are reported in TABLE 3 in a format expressing the identification of the compound with reference EXAMPLE followed by the observed potency in nM for NaV1.7, NaV1.6 and NaV1.5. NA signifies not applicable and the max concentration tested is 33750 nM.

[2] = target: T2, human Nav1.7 channels stably expressed in HEK 293 cells (Homo sapiens, UniProt Q15858); settings: max concentration tested 33750 nM, read-out: NaV1.7 (nM)
T2 construct: expressed in transfected cells; host or cells: HEK 293
Description: as §1, §2, §3

NaV1.5 = NaV1.5 (Homo sapiens, UniProt Q14524); settings: holding potential −80 mV; max concentration tested 33750 nM
Description: as §2, §3

[3] = holding potential −75 mV, −75 mV
[4] = holding potential −80 mV, −80 mV

T1 sequence (Q9UQD0 whole entry): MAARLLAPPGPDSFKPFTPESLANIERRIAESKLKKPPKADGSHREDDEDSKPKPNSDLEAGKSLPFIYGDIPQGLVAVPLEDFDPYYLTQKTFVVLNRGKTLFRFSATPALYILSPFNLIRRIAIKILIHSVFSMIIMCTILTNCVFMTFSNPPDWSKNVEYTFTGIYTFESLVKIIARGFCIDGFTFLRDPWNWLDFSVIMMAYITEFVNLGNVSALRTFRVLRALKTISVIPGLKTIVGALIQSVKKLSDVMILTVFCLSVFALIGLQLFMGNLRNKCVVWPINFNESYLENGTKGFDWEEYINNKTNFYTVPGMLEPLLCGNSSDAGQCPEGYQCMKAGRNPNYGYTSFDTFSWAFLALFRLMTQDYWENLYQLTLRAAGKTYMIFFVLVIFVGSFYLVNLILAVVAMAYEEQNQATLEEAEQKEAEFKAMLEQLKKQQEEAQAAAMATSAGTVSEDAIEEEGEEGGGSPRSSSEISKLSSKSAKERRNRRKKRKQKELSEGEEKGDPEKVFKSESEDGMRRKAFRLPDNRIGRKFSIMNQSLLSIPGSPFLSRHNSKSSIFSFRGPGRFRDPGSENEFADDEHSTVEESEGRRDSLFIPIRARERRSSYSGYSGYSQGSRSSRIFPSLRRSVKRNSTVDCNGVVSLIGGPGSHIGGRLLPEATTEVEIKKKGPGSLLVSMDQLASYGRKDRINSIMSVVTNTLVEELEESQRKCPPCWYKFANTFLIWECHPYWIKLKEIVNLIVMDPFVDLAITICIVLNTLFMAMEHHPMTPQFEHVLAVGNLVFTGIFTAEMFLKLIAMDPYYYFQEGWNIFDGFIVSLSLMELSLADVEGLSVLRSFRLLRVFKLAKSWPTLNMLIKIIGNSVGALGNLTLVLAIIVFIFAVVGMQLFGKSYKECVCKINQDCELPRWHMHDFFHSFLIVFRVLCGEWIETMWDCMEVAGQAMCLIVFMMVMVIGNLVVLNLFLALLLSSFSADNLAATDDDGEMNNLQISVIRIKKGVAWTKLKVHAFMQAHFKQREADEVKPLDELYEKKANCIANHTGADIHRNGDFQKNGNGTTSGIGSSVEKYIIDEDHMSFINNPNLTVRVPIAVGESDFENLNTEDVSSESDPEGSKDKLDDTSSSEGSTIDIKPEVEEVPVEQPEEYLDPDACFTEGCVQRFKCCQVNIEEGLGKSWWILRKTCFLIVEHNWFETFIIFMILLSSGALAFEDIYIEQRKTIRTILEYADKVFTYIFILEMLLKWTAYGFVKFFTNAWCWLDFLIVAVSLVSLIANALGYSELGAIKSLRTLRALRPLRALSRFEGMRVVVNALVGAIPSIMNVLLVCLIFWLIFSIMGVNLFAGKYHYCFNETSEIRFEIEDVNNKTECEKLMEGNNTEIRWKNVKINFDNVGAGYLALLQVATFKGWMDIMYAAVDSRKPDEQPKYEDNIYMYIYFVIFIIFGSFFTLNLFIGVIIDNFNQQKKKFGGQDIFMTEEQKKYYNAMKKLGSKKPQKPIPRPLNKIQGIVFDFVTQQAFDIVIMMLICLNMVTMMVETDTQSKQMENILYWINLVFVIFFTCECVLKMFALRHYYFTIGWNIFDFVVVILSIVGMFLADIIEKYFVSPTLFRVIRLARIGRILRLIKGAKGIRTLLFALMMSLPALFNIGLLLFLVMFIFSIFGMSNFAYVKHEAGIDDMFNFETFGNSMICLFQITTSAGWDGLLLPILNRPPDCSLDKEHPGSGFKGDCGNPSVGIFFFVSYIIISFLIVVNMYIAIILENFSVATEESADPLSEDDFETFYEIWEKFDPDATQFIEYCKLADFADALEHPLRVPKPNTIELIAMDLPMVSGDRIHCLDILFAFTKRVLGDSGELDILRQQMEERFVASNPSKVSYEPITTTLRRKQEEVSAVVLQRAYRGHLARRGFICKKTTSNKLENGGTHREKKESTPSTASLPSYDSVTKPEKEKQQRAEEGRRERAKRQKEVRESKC
T2 sequence (Q15858 whole entry): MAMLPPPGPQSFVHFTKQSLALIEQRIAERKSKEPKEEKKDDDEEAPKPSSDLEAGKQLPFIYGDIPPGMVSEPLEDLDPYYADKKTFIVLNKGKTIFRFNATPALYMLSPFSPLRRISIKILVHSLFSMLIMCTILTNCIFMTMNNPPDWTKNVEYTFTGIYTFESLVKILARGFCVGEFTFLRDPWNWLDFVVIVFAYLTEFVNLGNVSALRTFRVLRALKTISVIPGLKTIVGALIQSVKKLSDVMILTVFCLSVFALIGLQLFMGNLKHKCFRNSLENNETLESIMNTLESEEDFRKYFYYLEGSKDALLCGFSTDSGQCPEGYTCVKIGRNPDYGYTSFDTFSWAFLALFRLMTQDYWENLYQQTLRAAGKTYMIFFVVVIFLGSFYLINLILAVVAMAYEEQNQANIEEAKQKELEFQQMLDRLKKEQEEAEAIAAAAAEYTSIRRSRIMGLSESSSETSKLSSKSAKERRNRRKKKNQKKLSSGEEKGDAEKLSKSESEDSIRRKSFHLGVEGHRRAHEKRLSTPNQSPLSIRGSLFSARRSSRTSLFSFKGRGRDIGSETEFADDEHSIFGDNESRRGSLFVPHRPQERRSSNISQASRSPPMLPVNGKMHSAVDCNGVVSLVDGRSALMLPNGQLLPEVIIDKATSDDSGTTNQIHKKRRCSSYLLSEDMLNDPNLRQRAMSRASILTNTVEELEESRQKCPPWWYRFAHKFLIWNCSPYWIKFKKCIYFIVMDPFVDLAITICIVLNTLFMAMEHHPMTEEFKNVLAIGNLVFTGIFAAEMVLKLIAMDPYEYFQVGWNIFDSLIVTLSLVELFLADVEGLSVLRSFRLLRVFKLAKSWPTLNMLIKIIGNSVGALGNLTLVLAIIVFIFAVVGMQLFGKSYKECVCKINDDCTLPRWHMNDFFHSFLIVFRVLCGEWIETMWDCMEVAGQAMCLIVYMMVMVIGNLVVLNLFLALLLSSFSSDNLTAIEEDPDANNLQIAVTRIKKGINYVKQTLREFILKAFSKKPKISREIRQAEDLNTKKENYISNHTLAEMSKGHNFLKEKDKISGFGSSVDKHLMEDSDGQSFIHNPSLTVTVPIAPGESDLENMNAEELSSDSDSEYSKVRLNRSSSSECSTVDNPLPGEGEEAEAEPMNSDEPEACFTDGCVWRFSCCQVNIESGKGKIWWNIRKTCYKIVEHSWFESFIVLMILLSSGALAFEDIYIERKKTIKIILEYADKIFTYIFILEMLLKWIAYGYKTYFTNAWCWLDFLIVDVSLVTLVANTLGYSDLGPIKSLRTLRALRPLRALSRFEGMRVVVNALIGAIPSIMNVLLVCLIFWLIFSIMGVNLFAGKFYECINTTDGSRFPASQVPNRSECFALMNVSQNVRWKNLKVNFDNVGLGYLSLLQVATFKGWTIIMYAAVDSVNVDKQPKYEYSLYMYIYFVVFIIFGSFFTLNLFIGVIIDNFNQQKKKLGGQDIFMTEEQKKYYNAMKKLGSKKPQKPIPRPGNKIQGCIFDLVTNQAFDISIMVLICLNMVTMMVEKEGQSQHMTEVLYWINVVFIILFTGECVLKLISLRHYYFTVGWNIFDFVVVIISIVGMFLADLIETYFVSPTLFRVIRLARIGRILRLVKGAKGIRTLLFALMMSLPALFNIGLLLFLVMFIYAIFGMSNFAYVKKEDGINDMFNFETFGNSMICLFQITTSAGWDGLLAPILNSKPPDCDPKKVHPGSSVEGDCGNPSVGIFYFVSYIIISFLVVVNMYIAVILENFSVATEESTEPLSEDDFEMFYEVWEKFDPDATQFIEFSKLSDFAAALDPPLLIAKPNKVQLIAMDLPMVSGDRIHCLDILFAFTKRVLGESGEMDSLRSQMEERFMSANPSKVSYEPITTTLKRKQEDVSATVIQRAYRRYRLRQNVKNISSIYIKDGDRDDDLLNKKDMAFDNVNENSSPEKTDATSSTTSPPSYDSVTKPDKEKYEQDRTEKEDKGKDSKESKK

Row | SMILES | IC50 [1] [nM] | IC50 [2, 3] [nM] | IC50 [2, 4] [nM] | IC50 (NaV1.5) [nM]
1 | CC(C)N(CC(CNc1cc(F)c(S(=O)(=O)Nc2ncns2)cc1F)[C@@H](C)N)C[C@@H](C)N (single isomer, unassigned) [Example 38] | > 33800 | 109 | – | > 33800
2 | C[C@@H](N)[C@@H](CC(C)(C)CCN)C1CCc2cc(S(=O)(=O)Nc3ncns3)c(F)cc2O1 (single isomer, unassigned) [Example 42] | > 33800 | – | 306 | > 33800
3 | C[C@@H](N)C(CNc1cc(F)c(S(=O)(=O)Nc2ncns2)cc1Br)CC1(CCN)CC(F)(F)C1 (single isomer, unassigned) [Example 57] | 224 | – | 10 | > 33800
4 | C[C@@H](N)C(CNc1ccc(S(=O)(=O)Nc2ncns2)c(F)c1)CC1(CCN)CC(F)(F)C1 (single isomer, unassigned) [Example 59] | > 33800 | – | 38 | > 33800
5 | C[C@@H](N)C(CNc1cc(F)c(S(=O)(=O)Nc2ncns2)cc1F)CC1CCCCC1CCN (single isomer, unassigned) [Example 61] | > 33800 | – | 16 | > 33800
6 | C[C@@H](N)C(CNc1cc(F)c(S(=O)(=O)Nc2ncns2)cc1F)CC1CCCCC1CCN (single isomer, unassigned) [Example 62] | > 33800 | – | 56 | > 33800
7 | C[C@@H](N)C(CNc1cc(F)c(S(=O)(=O)Nc2ncns2)cc1F)CC1CCCCC1CCN (single isomer, unassigned) [Example 65] | > 33800 | – | 271 | > 33800
8 | C[C@@H](N)[C@H](CNc1cc(F)c(S(=O)(=O)Nc2ncns2)cc1F)CC(N)CC(F)(F)F (single isomer, unassigned) [Example 85] | > 33800 | 72 | – | > 33800
9 | CCC(CN)CC(CNc1cc(F)c(S(=O)(=O)Nc2ncns2)cc1F)[C@@H](C)N (single isomer, unassigned) [Example 93] | > 33800 | 16 | – | > 33800
10 | C[C@@H](N)C(CNc1cc(F)c(S(=O)(=O)Nc2ncns2)cc1F)CC1NC2CCC1C2 (single isomer, unassigned) [Example 111] | > 33800 | – | 65 | 13000
11 | C[C@@H](N)[C@H](CNc1cc(F)c(S(=O)(=O)Nc2ncns2)cc1F)CC1(CCN)CCC1 [Example 10, 4-(((2S,3R)-3-amino-2-((1-(2-aminoethyl)cyclobutyl)methyl)butyl)amino)-2,5-difluoro-N-(1,2,4-thiadiazol-5-yl)benzenesulfonamide] | > 33800 | 8 | – | > 33800
12 | C[C@@H](N)[C@H](CNc1cc(F)c(S(=O)(=O)Nc2ccncn2)cc1Cl)CC(C)(C)CCN [Example 12, 4-(((S)-6-amino-2-((R)-1-aminoethyl)-4,4-dimethylhexyl)amino)-5-chloro-2-fluoro-N-(pyrimidin-4-yl)benzenesulfonamide] | > 33800 | 133 | – | > 33800
13 | C[C@@H](N)[C@H](CNc1cc(F)c(S(=O)(=O)Nc2ncns2)cc1F)CC(N)C1(C)CC1 (stereo partly drawn) [Example 18, 4-(((2S)-4-amino-2-((R)-1-aminoethyl)-4-(1-methylcyclopropyl)butyl)amino)-2,5-difluoro-N-(1,2,4-thiadiazol-5-yl)benzenesulfonamide] | > 33800 | – | 149 | > 33800
14 | CC(C)(CCN)C[C@@H](CNc1cc(F)c(S(=O)(=O)Nc2ncns2)cc1F)[C@H](N)C1CC1 [Example 28, 4-(((S)-6-amino-2-((R)-amino(cyclopropyl)methyl)-4,4-dimethylhexyl)amino)-2,5-difluoro-N-(1,2,4-thiadiazol-5-yl)benzenesulfonamide] | > 33800 | 34 | – | > 33800
15 | CC(C)(CCN)C[C@@H](CNc1cc(F)c(S(=O)(=O)Nc2ncns2)cc1Cl)[C@H](N)CC1CC1 [Example 29, 4-(((S)-6-amino-2-((R)-1-amino-2-cyclopropylethyl)-4,4-dimethylhexyl)amino)-5-chloro-2-fluoro-N-(1,2,4-thiadiazol-5-yl)benzenesulfonamide bis(2,2,2-trifluoroacetate)] | > 33800 | 95 | – | > 33800
16 | C[C@@H](N)[C@H](CNc1ncc(S(=O)(=O)Nc2ncns2)cc1Br)CC(C)(C)CCN [Example 30, 6-(((S)-6-amino-2-((R)-1-aminoethyl)-4,4-dimethylhexyl)amino)-5-bromo-N-(1,2,4-thiadiazol-5-yl)pyridine-3-sulfonamide] | > 33800 | 77 | – | > 33800
17 | Cc1cc(NC[C@H](CC(C)(C)CCN)[C@@H](C)N)c(Cl)cc1S(=O)(=O)Nc1ncns1 [Example 32, 4-(((S)-6-amino-2-((R)-1-aminoethyl)-4,4-dimethylhexyl)amino)-5-chloro-2-methyl-N-(1,2,4-thiadiazol-5-yl)benzenesulfonamide] | > 33800 | 19 | – | 20700
18 | C[C@@H](N)[C@H](CNc1cc(F)c(S(=O)(=O)Nc2ncns2)cc1-c1nccs1)CC(C)(C)CCN [Example 40, 4-(((S)-6-amino-2-((R)-1-aminoethyl)-4,4-dimethylhexyl)amino)-2-fluoro-N-(1,2,4-thiadiazol-5-yl)-5-(thiazol-2-yl)benzenesulfonamide] | 11600 | – | 17 | > 33800

Continued, in another order:

Row | IC50 [1] [nM] | IC50 [2, 3] [nM] | IC50 [2, 4] [nM] | SMILES | IC50 (NaV1.5) [nM]
19 | > 33800 | – | 210 | CC(C)N(CC(CNc1cc(F)c(S(=O)(=O)Nc2ncns2)cc1F)[C@@H](C)N)C[C@@H](C)N (single isomer, unassigned) [Example 39] | > 33800
20 | > 33800 | – | 57 | C[C@@H](N)C(CNc1cc(F)c(S(=O)(=O)Nc2ncns2)cc1F)CC1CCCC1CN (single isomer, unassigned) [Example 46] | > 33800
21 | > 33800 | – | 165 | C[C@@H](N)C(CNc1cc(F)c(S(=O)(=O)Nc2ncns2)cc1F)CC1(C)CCC1CN (single isomer, unassigned) [Example 53] | > 33800
22 | > 33800 | – | 12 | C[C@@H](N)C(CNc1cc(F)c(S(=O)(=O)Nc2ncns2)cc1F)CC1CCCCC1CCN (single isomer, unassigned) [Example 60] | 20600
23 | > 33800 | – | 156 | C[C@@H](N)C(CNc1cc(F)c(S(=O)(=O)Nc2ncns2)cc1F)CC1CCCCC1CCN (single isomer, unassigned) [Example 63] | > 33800
24 | > 33800 | – | 229 | C[C@@H](N)C(CNc1cc(F)c(S(=O)(=O)Nc2ncns2)cc1F)CC1CC2(CC2)CN1 (single isomer, unassigned) [Example 72] | > 33800
25 | > 33800 | 7 | 28 | C[C@@H](N)C(CNc1cc(F)c(S(=O)(=O)Nc2ncns2)cc1F)C[C@@]1(C)CCC[C@@H]1CN (single isomer, unassigned) [Example 97] | > 33800
26 | 697 | 3 | – | CC(C)C(N)CC(CNc1cc(F)c(S(=O)(=O)Nc2ncns2)cc1Br)[C@@H](C)N (single isomer, unassigned) [Example 109] | 15600
27 | 20700 | 118 | – | C[C@H]1NCCNCC(C)(C)C[C@H]1CNc1cc(F)c(S(=O)(=O)Nc2ncns2)cc1Cl [Example 5, 5-chloro-2-fluoro-N-(1,2,4-thiadiazol-5-yl)-4-((((5R,6S)-5,8,8-trimethyl-1,4-diazonan-6-yl)methyl)amino)benzenesulfonamide] | > 33800
28 | > 33800 | 41 | – | CC(C)[C@@H](N)[C@H](CNc1cc(F)c(S(=O)(=O)Nc2ncns2)cc1Cl)CC(C)(C)CCN [Example 27, 4-(((S)-6-amino-2-((R)-1-amino-2-methylpropyl)-4,4-dimethylhexyl)amino)-5-chloro-2-fluoro-N-(1,2,4-thiadiazol-5-yl)benzenesulfonamide bis(2,2,2-trifluoroacetate)] | > 33800
29 | > 33800 | – | 61 | C[C@@H](N)[C@H](CNc1cc(F)c(S(=O)(=O)Nc2ncns2)cc1F)CC1(CCN(C)C)CCC1 [Example 43, 4-(((2S,3R)-3-amino-2-((1-(2-(dimethylamino)ethyl)cyclobutyl)methyl)butyl)amino)-2,5-difluoro-N-(1,2,4-thiadiazol-5-yl)benzenesulfonamide] | > 33800
